# Patent publication US6797462B1, “Cell-based assay for immunodeficiency virus infectivity and sensitivity” (UAB Research Foundation, priority 1998, dated 2004)
# Test system: HIV YU2
# Assay: Protease inhibitor sensitivity: J53tat cells infected with HIV YU2 with drug, supernatant used to infect J53BL cells
# Format: cell-based, HIV-1
# Conditions: for Number of colony formed in the presence of protease Inhibitor Indinavir: YU2, J53tat then J53BL
# Description: The J53tat cell line is used to produce virus and thereby enable viral testing of drug candidates that affect various stages of the virus life cycle. Thus, viral drug resistance mutations in early stage targets such as reverse transcriptase (RT), integrase (IN) and env; and late stage targets such as protease and Gag are analyzed by the methods of the present invention. The J53tat cells are infected with HIV YU2 (MOI of either 0.2 or 0.04), and protease inhibitor (indinavir) is added to the cultures at various concentrations. Forty hours after infection the culture supernatant is collected and used to infect the J53BL cell line in the presence of the same drug concentrations.
smiles,measurement,setting,value
CC(C)(C)NC(=O)[C@@H]1CN(Cc2cccnc2)CCN1C[C@@H](O)C[C@@H](Cc1ccccc1)C(=O)N[C@H]1c2ccccc2C[C@H]1O [indinavir],Number of colony formed in the presence of protease Inhibitor Indinavir,"0.04 M.O.I, 0.008 MM indinavir",105
same,Number of colony formed in the presence of protease Inhibitor Indinavir,"0.04 M.O.I, 0.2 MM indinavir",2
same,Number of colony formed in the presence of protease Inhibitor Indinavir,"0.04 M.O.I, 1.0 MM indinavir",0
same,Number of colony formed in the presence of protease Inhibitor Indinavir,0.04 M.O.I,2
same,Number of colony formed in the presence of protease Inhibitor Indinavir,"0.2 M.O.I, 0.008 MM indinavir",>1000
same,Number of colony formed in the presence of protease Inhibitor Indinavir,"0.2 M.O.I, 0.2 MM indinavir",99
same,Number of colony formed in the presence of protease Inhibitor Indinavir,"0.2 M.O.I, 1.0 MM indinavir",0
same,Number of colony formed in the presence of protease Inhibitor Indinavir,0.2 M.O.I,343
same,Sensitivity of YU2 to protease inhibitor,increasing concentrations causing greater inhibition,sensitive
